Measurements reported in article PMC8151276, “An Integrated Approach toward NanoBRET Tracers for Analysis of GPCR Ligand Engagement” (Molecules, 2021).
Like-named read-outs stand apart in the source and are kept apart here. Blank lines part the entries; values can stand above or below the compound they belong to.

Columns and labels:
Format in all cases: binding
CHRM2 = molecular target: T1, CHRM2 (Homo sapiens, UniProt P08172); assay: NanoBRET screen HiBiT-CHRM2 in HEK293
T1 construct: purchased Promega (in-house HiBiT-GPCR construct library, NanoBRET)
T1 sequence (P08172 1-466): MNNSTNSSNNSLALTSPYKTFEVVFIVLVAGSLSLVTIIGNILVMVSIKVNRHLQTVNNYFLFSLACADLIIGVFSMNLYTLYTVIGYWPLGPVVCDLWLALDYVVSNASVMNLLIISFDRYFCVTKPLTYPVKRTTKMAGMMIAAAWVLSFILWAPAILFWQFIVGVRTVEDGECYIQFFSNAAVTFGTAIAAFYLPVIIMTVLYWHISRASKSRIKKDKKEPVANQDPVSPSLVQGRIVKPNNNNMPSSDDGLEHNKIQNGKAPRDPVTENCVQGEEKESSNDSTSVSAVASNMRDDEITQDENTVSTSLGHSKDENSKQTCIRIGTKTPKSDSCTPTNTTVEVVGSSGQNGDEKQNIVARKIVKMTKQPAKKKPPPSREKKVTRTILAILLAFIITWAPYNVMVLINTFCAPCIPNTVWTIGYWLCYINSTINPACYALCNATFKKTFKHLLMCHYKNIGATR
Protocol: Each tracer candidate was screened across the entire library of HiBiT-GPCR constructs using NanoBRET as the detection modality. As depicted in Figure 4A, the specificity of interactions was evaluated through decrease in BRET due to competitive displacement of a bound tracer by excess parental compound. Each tracer was analyzed for binding to each HiBiT-GPCR fusion in the absence and in the presence of competing parental compound. Briefly, HEK293 cells were transfected with HiBiT-GPCR constructs diluted into promoterless DNA to reduce expression and maximize translocation to the cell surface. Each tracer candidate was then screened at concentrations of 1 μM and 0.1 μM across cells expressing these fusions. Cells were treated for 1.5 h with tracer either alone or in the presence of 20 μM competing parental compound (i.e., control). BRET was measured upon addition of purified LgBiT and subsequent complementation with HiBiT genetically fused to a GPCR. The specificity of interactions was assessed through a decrease in BRET signal due to competitive displacement of the bound tracer. To further gauge the robustness of these interactions, the fold response over the control (i.e., BRETtracer/BRETcontrol) was calculated. We chose a 1.5-fold response, which translates to ≥7-fold signal over noise as the minimal threshold required to score an interaction as positive.
HiBiT-GPCR DNA constructs were diluted in 10 mM Tris pH 8 to a final concentration of 0.01 μg/μL, arrayed in 96-well plates and stored at −20 °C. For transfection, HEK293 cells were suspended in Opti-MEM (without phenol red) supplemented with 2% fetal bovine serum (Seradigm) and 100 units/mL penicillin–streptomycin (Gibco) at a final concentration of 220,000 cells/mL and dispensed into white 96-well plates at 90 μL/well. Subsequent transfections and screens were carried using an Agilent Bravo Automated Liquid Handling Platform. First, the 96-well HiBiT DNA arrays were diluted 25-fold in Opti-MEM (without serum or phenol red) to a final concentration of 0.0004 μg/μL and 20 μL of the diluted DNAs were transferred into new 96-well plates. Next, promoterless carrier DNA (1 μg/μL) was diluted 25-fold (0.04 μg/μL) and then dispensed into the diluted arrays at 20 μL/well. Following brief mixing, Viafect transfection reagent (Promega) diluted 16-fold into Opti-MEM was dispensed into the plates at 40 μL/well. After mixing by pipetting, plates were incubated for 10 min on the pipetting station deck. The DNA-transfection reagent complexes were then added to plates containing cells. To facilitate the screen, 10 μL of DNA-transfection reagent complexes were added in duplicates to the top 4 and bottom 4 rows, resulting in two identical 48-well arrays per plate. Plates with transfected cells were incubated for 18–20 h at 37 °C/5% CO2. A screen of each tracer across the entire library using two different concentrations requires duplicate plates of transfected cells. Depending on the number of tracers being screened, transfections can be scaled up using the same ratios. The next day, for each tracer, four 20× screening solutions in tracer dilution buffer (Promega) were prepared: two duplicates at final concentration of 20 μM and two duplicates at a final concentration of 2 μM. […] The four resulting solutions were diluted 4-fold in Opti-MEM without serum or phenol red to generate 5× solutions (5 µM and 0.5 µM tracer +/− 100 μM competing compound). To screen the library, a BioTek MultiFlo FX liquid dispenser was used to dispense 22.5 µL of tracer solution to the top 4 rows and 22.5 µL tracer + competing compound solution to the 4 bottom rows. Plates were briefly mixed on an orbital shaker and incubated for 1.5 h at room temperature. […] Plates were briefly mixed on an orbital shaker and incubated for 15 min to allow complementation.

CHRM1 = molecular target: T2, CHRM1 (Homo sapiens, UniProt P11229); assay: NanoBRET screen HiBiT-CHRM1 in HEK293
T2 construct: purchased Promega (in-house HiBiT-GPCR construct library, NanoBRET)
T2 sequence (P11229 1-460): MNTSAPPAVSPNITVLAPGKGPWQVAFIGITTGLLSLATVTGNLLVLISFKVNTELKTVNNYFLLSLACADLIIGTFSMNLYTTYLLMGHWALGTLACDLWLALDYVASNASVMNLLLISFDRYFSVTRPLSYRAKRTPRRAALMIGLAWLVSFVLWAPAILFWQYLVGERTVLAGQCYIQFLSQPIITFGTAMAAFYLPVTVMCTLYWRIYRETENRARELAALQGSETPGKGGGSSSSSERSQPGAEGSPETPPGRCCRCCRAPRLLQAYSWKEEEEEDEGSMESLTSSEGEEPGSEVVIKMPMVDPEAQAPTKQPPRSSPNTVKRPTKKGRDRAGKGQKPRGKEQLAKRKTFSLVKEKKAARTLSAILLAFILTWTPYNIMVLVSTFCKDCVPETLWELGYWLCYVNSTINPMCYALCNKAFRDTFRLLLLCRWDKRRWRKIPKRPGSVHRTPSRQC

CHRM3 = molecular target: T3, CHRM3 (Homo sapiens, UniProt P20309); assay: NanoBRET screen HiBiT-CHRM3 in HEK293
T3 construct: purchased Promega (in-house HiBiT-GPCR construct library, NanoBRET)

HRH1 = molecular target: T4, HRH1 (Homo sapiens, UniProt P35367); assay: NanoBRET screen HiBiT-HRH1 in HEK293
T4 construct: purchased Promega (in-house HiBiT-GPCR construct library, NanoBRET)
T4 sequence (P35367 whole entry): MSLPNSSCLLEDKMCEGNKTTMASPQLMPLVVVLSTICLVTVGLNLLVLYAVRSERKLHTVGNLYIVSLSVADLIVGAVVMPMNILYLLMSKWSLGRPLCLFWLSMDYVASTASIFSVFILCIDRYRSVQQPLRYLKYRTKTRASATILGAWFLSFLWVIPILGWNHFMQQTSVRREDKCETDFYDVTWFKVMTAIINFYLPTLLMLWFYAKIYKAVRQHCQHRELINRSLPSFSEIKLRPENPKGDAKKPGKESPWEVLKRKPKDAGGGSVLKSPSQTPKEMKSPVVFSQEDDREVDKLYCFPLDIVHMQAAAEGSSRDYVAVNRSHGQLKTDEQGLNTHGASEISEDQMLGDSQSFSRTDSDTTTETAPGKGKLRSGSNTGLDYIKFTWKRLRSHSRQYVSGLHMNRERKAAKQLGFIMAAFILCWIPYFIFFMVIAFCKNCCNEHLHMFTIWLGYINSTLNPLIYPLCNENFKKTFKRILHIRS

T3 sequence (P20309 whole entry): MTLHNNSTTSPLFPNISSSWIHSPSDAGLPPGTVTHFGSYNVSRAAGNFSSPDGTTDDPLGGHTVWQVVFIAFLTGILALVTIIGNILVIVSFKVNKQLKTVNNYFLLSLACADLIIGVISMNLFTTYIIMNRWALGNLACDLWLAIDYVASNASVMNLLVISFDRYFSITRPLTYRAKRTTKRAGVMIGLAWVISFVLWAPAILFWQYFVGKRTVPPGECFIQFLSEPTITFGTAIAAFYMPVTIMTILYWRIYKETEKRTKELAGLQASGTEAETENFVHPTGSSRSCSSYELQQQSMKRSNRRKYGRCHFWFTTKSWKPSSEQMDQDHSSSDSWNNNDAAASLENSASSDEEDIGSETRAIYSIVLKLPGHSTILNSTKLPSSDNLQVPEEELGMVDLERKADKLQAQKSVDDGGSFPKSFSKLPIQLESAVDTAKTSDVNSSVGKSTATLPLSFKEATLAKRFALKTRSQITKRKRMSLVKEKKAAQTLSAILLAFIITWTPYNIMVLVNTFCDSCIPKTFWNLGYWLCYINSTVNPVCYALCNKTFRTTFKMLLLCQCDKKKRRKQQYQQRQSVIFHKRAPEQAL

SMILES: O=C(CCc1ccc2n1[B-](F)(F)[N+]1=C(c3ccc[nH]3)C=CC1=C2)NCCOCCOCCNC(=O)OCCOCCN1CCN(C2=Nc3ccccc3Sc3ccccc32)CC1 [Quetiapine-a-2-NB590]
NanoBRET Fold Response (CHRM2; CHRM2, tracer 0.1μM): 1.56
NanoBRET Fold Response (CHRM2; CHRM2, tracer 1μM): 1.75

SMILES: COc1ccccc1N1CCN(CCCCN2C(=O)c3ccc(CNC(=O)CCOCCOCCOCCOCCNC(=O)CCc4ccc5n4[B-](F)(F)[N+]4=C(c6ccc[nH]6)C=CC4=C5)cc3C2=O)CC1 [NAN-190-2-NB590]
NanoBRET Fold Response (CHRM1): 1.02
NanoBRET Fold Response (CHRM1; CHRM1, tracer 1μM): 1.16
NanoBRET Fold Response (CHRM2; CHRM2, tracer 0.1μM): 1.13
NanoBRET Fold Response (CHRM3; CHRM3, tracer 1μM): 0.99
NanoBRET Fold Response (HRH1; HRH1, tracer 0.1μM): 2.49
NanoBRET Fold Response (HRH1; HRH1, tracer 1μM): 2.31

SMILES: CN1CCN(C2=Nc3cc(Cl)ccc3N(CC(=O)NCCOCCOCCOCCOCCNC(=O)CCc3ccc4n3[B-](F)(F)[N+]3=C(c5ccc[nH]5)C=CC3=C4)c3ccccc32)CC1 [Clozapine-c-2-NB590]
NanoBRET Fold Response (CHRM2; CHRM2, 0.1μM tracer): 0.99
NanoBRET Fold Response (CHRM2; CHRM2, 1μM tracer): 0.87

NanoBRET Fold Response (CHRM1; 0.1μM tracer): 1.20
NanoBRET Fold Response (CHRM1; 1μM tracer): 0.97
NanoBRET Fold Response (CHRM2; 0.1μM tracer): 1.08
NanoBRET Fold Response (CHRM2; 1μM tracer): 0.86
NanoBRET Fold Response (CHRM3; 0.1μM tracer): 0.95
NanoBRET Fold Response (CHRM3; 1μM tracer): 1.01
NanoBRET Fold Response (HRH1; 0.1μM tracer): 0.94
NanoBRET Fold Response (HRH1; 1μM tracer): 0.89
SMILES: COc1ccc2[nH]c(-c3ccc(CNC(=O)CCOCCOCCOCCOCCNC(=O)CCc4ccc5n4[B-](F)(F)[N+]4=C(c6ccc[nH]6)C=CC4=C5)cc3)c(CCNC(C)=O)c2n1 [AzomelatoninICO9-2-NB590]

SMILES: O=C(CCc1ccc2n1[B-](F)(F)[N+]1=C(c3ccc[nH]3)C=CC1=C2)NCc1ccc(C(=O)NCCOCCOCCNCC(O)COc2cccc3ccccc23)cc1 (stereo not shown) [Propranolol-3-NB590]
NanoBRET Fold Response (CHRM2; CHRM2, 0.1μM): 1.14
NanoBRET Fold Response (CHRM2; CHRM2, 1μM): 1.00

SMILES: O=C(CCc1ccc2n1[B-](F)(F)[N+]1=C(c3ccc[nH]3)C=CC1=C2)NCc1ccc(C(=O)NCCOCCC(=O)N[C@@H]2CC[C@@]3(O)[C@H]4Cc5ccc(O)c6c5[C@@]3(CCN4CC3CC3)[C@H]2O6)cc1 [Naltrexone-3-NB590]
NanoBRET Fold Response (CHRM2; CHRM2, tracer 0.1μM): 0.57
NanoBRET Fold Response (CHRM2; CHRM2, tracer 1μM): 1.32

SMILES: CN(CCC=C1c2ccccc2CCc2ccccc21)C(=O)CCOCCOCCOCCOCCNC(=O)CCc1ccc2n1[B-](F)(F)[N+]1=C(c3ccc[nH]3)C=CC1=C2 [Amitriptyline-e-2-NB590]
NanoBRET Fold Response (CHRM2; tracer at 1μM): 1.05

SMILES: CN1CCN(C2=Nc3cc(Cl)ccc3Nc3ccc(CNC(=O)CCOCCOCCOCCOCCNC(=O)CCc4ccc5n4[B-](F)(F)[N+]4=C(c6ccc[nH]6)C=CC4=C5)cc32)CC1 [Clozapine-b-2-NB590]
NanoBRET Fold Response (CHRM2; CHRM2, 0.1μM tracer): 1.48
NanoBRET Fold Response (CHRM2; CHRM2, 1μM tracer): 1.99
